Results from patent US6914045B2, “Glycopeptide antibiotics” (Wyeth Holdings Corporation, priority 2001, dated 2005).
Values after ≈ are worked out from the molar mass of the structure shown.

How the values were obtained:
Experiment in all cases: in vitro antibacterial evaluation, MIC by broth dilution
Format in all cases: cell-based
Enterococcus sp. = details: broth dilution, 18 hours at 35° C.
How it was run: (§1)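 Step 1: dilute antibiotic across 64-0.06 μg/mL in Muller-Hinton II […]. Step 2: inoculate at 5×10^5 CFU/mL.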

Escherichia coli = test system: Escherichia coli
How it was run: as §1

Staphylococcus sp. = details: broth dilution, 18 hours at 35° C.; for MIC Staphylococcus aureus (GC 1131): strain GC 1131
How it was run: as §1

Streptococcus sp. = details: broth dilution, 18 hours at 35° C.
How it was run: as §1

MIC Enterococcus avium (GC 4558) (Enterococcus sp.; Enterococcus avium (GC 4558)): 4 µg/mL (≈ 2.8 µM)
MIC Enterococcus faecalis (ATCC 29212) (Enterococcus sp.; Enterococcus faecalis (ATCC 29212)): 2 µg/mL (≈ 1.4 µM)
MIC Enterococcus faecalis (GC 2242) (Enterococcus sp.; Enterococcus faecalis (GC 2242)): 2 µg/mL (≈ 1.4 µM)
MIC Enterococcus faecalis (GC 2691) (Enterococcus sp.; Enterococcus faecalis (GC 2691)): 2 µg/mL (≈ 1.4 µM)
MIC Enterococcus faecalis (GC 3059) (Enterococcus sp.; Enterococcus faecalis (GC 3059)): 4 µg/mL (≈ 2.8 µM)
MIC Enterococcus faecalis (GC 4552) (Enterococcus sp.; Enterococcus faecalis (GC 4552)): 2 µg/mL (≈ 1.4 µM)
MIC Enterococcus faecalis (GC 4553) (Enterococcus sp.; Enterococcus faecalis (GC 4553)): 4 µg/mL (≈ 2.8 µM)
MIC Enterococcus faecalis (GC 4554) (Enterococcus sp.; Enterococcus faecalis (GC 4554)): 4 µg/mL (≈ 2.8 µM)
MIC Enterococcus faecalis (GC 6189) (Enterococcus sp.; Enterococcus faecalis (GC 6189)): 2 µg/mL (≈ 1.4 µM)
MIC Enterococcus faecium (GC 2243) (Enterococcus sp.; Enterococcus faecium (GC 2243)): 2 µg/mL (≈ 1.4 µM)
MIC Enterococcus faecium (GC 4556) (Enterococcus sp.; Enterococcus faecium (GC 4556)): 2 µg/mL (≈ 1.4 µM)
MIC Enterococcus faecium (GC 4557) (Enterococcus sp.; Enterococcus faecium (GC 4557)): 2 µg/mL (≈ 1.4 µM)
MIC Enterococcus faecalis (ATCC 29212) (Enterococcus sp.; strain ATCC 29212): 2 µg/mL (≈ 1.4 µM)
MIC Enterococcus faecalis (GC 2242) (Enterococcus sp.; strain GC 2242): 2 µg/mL (≈ 1.4 µM)
MIC Enterococcus faecium (GC 2243) (Enterococcus sp.; strain GC 2243): 2 µg/mL (≈ 1.4 µM)
MIC Enterococcus faecalis (GC 2691) (Enterococcus sp.; strain GC 2691): 2 µg/mL (≈ 1.4 µM)
MIC Enterococcus faecalis (GC 3059) (Enterococcus sp.; strain GC 3059): 4 µg/mL (≈ 2.8 µM)
MIC Enterococcus faecalis (GC 4552) (Enterococcus sp.; strain GC 4552): 2 µg/mL (≈ 1.4 µM)
MIC Enterococcus faecalis (GC 4553) (Enterococcus sp.; strain GC 4553): 4 µg/mL (≈ 2.8 µM)
MIC Enterococcus faecalis (GC 4554) (Enterococcus sp.; strain GC 4554): 4 µg/mL (≈ 2.8 µM)
MIC Enterococcus faecium (GC 4556) (Enterococcus sp.; strain GC 4556): 2 µg/mL (≈ 1.4 µM)
MIC Enterococcus faecium (GC 4557) (Enterococcus sp.; strain GC 4557): 2 µg/mL (≈ 1.4 µM)
MIC Enterococcus avium (GC 4558) (Enterococcus sp.; strain GC 4558): 4 µg/mL (≈ 2.8 µM)
MIC Enterococcus faecalis (GC 6189) (Enterococcus sp.; strain GC 6189): 2 µg/mL (≈ 1.4 µM)
MIC Escherichia coli (ATCC 25922) (Escherichia coli; strain ATCC 25922, 18 hours at 35° C.): 32 µg/mL (≈ 22.4 µM)
MIC Escherichia coli (GC 4559) (Escherichia coli; strain GC 4559, 18 hours at 35° C.): 32 µg/mL (≈ 22.4 µM)
MIC Staphylococcus aureus (GC 1131) (Staphylococcus sp.; inoculum 5×10^5 CFU/mL): 1 µg/mL (≈ 0.7 µM)
MIC Staphylococcus aureus (ATCC 29213) (Staphylococcus sp.; strain ATCC 29213): 2 µg/mL (≈ 1.4 µM)
MIC Staphylococcus aureus (GC 1131) (Staphylococcus sp.): 1 µg/mL (≈ 0.7 µM)
MIC Staphylococcus aureus (GC 3051) (Staphylococcus sp.; strain GC 3051): 1 µg/mL (≈ 0.7 µM)
MIC Staphylococcus aureus (GC 3053) (Staphylococcus sp.; strain GC 3053): 1 µg/mL (≈ 0.7 µM)
MIC Staphylococcus aureus (GC 4541) (Staphylococcus sp.; strain GC 4541): 0.5 µg/mL (≈ 0.35 µM)
MIC Staphylococcus aureus (GC 4542) (Staphylococcus sp.; strain GC 4542): 0.5 µg/mL (≈ 0.35 µM)
MIC Staphylococcus aureus-SMITH (GC 4543) (Staphylococcus sp.; strain GC 4543): 1 µg/mL (≈ 0.7 µM)
MIC Staphylococcus aureus (GC 4544) (Staphylococcus sp.; strain GC 4544): 4 µg/mL (≈ 2.8 µM)
MIC Staphylococcus aureus (GC 4545) (Staphylococcus sp.; strain GC 4545): 1 µg/mL (≈ 0.7 µM)
MIC Coagulase Negative Staphylococcus (GC 4547) (Staphylococcus sp.; strain GC 4547): 1 µg/mL (≈ 0.7 µM)
MIC Coagulase Negative Staphylococcus (GC 4548) (Staphylococcus sp.; strain GC 4548): 0.25 µg/mL (≈ 0.175 µM)
MIC Coagulase Negative Staphylococcus (GC 4549) (Staphylococcus sp.; strain GC 4549): 0.12 µg/mL (≈ 0.0839 µM)
MIC Coagulase Negative Staphylococcus (GC 4551) (Staphylococcus sp.; strain GC 4551): 0.5 µg/mL (≈ 0.35 µM)
MIC Coagulase Negative Staphylococcus (GC 6257) (Staphylococcus sp.; strain GC 6257): 0.25 µg/mL (≈ 0.175 µM)
MIC Staphylococcus aureus-SMITH (GC 4543) (Staphylococcus sp.; strain SMITH GC 4543): 1 µg/mL (≈ 0.7 µM)
MIC Streptococcus agalactiae (GC 4564) (Streptococcus sp.; Streptococcus agalactiae (GC 4564)): <0.06 µg/mL
MIC Streptococcus pneumoniae (ATCC 6301) (Streptococcus sp.; Streptococcus pneumoniae (ATCC 6301)): <0.06 µg/mL
MIC Streptococcus pneumoniae (GC 1894) (Streptococcus sp.; Streptococcus pneumoniae (GC 1894)): <0.06 µg/mL
MIC Streptococcus pneumoniae (GC 4565) (Streptococcus sp.; Streptococcus pneumoniae (GC 4565)): <0.06 µg/mL
MIC Streptococcus pyogenes (GC 4563) (Streptococcus sp.; Streptococcus pyogenes (GC 4563)): <0.06 µg/mL
MIC Streptococcus pneumoniae (ATCC 6301) (Streptococcus sp.; strain ATCC 6301): <0.06 µg/mL
MIC Streptococcus pneumoniae (GC 1894) (Streptococcus sp.; strain GC 1894): <0.06 µg/mL
MIC Streptococcus pyogenes (GC 4563) (Streptococcus sp.; strain GC 4563): <0.06 µg/mL
MIC Streptococcus agalactiae (GC 4564) (Streptococcus sp.; strain GC 4564): <0.06 µg/mL
MIC Streptococcus pneumoniae (GC 4565) (Streptococcus sp.; strain GC 4565): <0.06 µg/mL
SMILES: CSc1ccc(C2OCC3OC(OC4C(CO)OC(Oc5ccc(CC6NC(=O)C(C(C)c7ccccc7)NC(=O)CNC(=O)C(CO)NC(=O)C(C(O)C7CNC(=N)N7C7OC(CO)C(O)C(O)C7O)NC(=O)C(C(O)C7CNC(=N)N7)NC6=O)cc5)C(O)C4O)C(O)C(O)C3O2)cc1 (centres unmarked) [Example 144]
MIC Staphylococcus haemolyticus (GC 4546) (Staphylococcus sp.; strain GC 4546): 1 µg/mL (≈ 0.7 µM)
